Reference: ChEMBL document CHEMBL3132767, “Validation of host factors of HIV integration as novel drug targets for anti-HIV therapy” (Medchemcomm, 2014)

Tests used:
[1] = Cytotoxicity against human MT4 cells by MTT assay; assay type: cell-based
[2] = Selectivity index, ratio of CC50 for human MT4 cells to EC50 for HIV1 3B infected in human MT4 cells; assay type: toxicity, cell-based; details: MT4 cells (uninfected for CC50; HIV-1 3B infected for EC50)
[3] = test system: Human immunodeficiency virus 1; assay: Antiviral activity against HIV1 3B infected in human MT4 cells assessed as inhibition of viral replication by MTT assay; assay type: functional, organism-based; details: Human immunodeficiency virus 1, 3B
[4] = test system: Human immunodeficiency virus 1; assay: Inhibition of LEDGF/p75-HIV1 integrase interaction at 100 uM by Alphascreen assay

| inhibition [4] | SMILES | CC50 [1] | selectivity ratio [2] | EC50 [3] |
| --- | --- | --- | --- | --- |
|  | Cc1ccc(-c2c(C(OC(C)(C)C)C(=O)O)cnc3sc(C)cc23)cc1 (stereo not drawn) | 96 µM | 1390 |  |
|  | CCCC(C(=O)O)c1c(C)nc2ccc(Cl)cc2c1-c1ccccc1 (stereo not drawn) | 67.3 µM | 25 | 2.35 µM |
|  | O=C(O)Cc1c(-c2ccccc2)c2cc(Cl)ccc2[nH]c1=O | > 150 µM | > 3 | 41.9 µM |
|  | CCCC(C(=O)O)c1c(-c2ccccc2)c2cc(Cl)ccc2n(CCC)c1=O (stereo not drawn) | 64.4 µM | 6 | 10.8 µM |
|  | CCCC(C(=O)O)c1cnc2sc(C)cc2c1-c1ccc(C)cc1 (stereo not drawn) | 72.2 µM | 95 | 0.76 µM |
|  | C=CCC(C(=O)O)c1c(-c2ccccc2)c2cc(Cl)ccc2[nH]c1=O (stereo not drawn) | 67.3 µM | 6 | 12.4 µM |
| 36% | Cn1c(=O)c(/C(=N/c2ccccc2)c2nnn[nH]2)c(O)c2ccccc21 |  |  |  |
